Our source for the IC50 values is the Kinase Knowledgebase extract (Sharma et al. 2016).

Test [1] has as its target EGFR (UniProt P00533).
The target of test [2] is EGFR (UniProt P00533). This is another data set of the same source.
For a further test, the target named is EGFR (mouse) (UniProt P00533). The conditions noted are these: 3t3.
A further test concerns the target EGFR (human) (UniProt P00533). The conditions noted are these: A431.
Another test concerns the target CDK2 (UniProt P24941).

Sequence of EGFR (P00533 whole entry, looked up): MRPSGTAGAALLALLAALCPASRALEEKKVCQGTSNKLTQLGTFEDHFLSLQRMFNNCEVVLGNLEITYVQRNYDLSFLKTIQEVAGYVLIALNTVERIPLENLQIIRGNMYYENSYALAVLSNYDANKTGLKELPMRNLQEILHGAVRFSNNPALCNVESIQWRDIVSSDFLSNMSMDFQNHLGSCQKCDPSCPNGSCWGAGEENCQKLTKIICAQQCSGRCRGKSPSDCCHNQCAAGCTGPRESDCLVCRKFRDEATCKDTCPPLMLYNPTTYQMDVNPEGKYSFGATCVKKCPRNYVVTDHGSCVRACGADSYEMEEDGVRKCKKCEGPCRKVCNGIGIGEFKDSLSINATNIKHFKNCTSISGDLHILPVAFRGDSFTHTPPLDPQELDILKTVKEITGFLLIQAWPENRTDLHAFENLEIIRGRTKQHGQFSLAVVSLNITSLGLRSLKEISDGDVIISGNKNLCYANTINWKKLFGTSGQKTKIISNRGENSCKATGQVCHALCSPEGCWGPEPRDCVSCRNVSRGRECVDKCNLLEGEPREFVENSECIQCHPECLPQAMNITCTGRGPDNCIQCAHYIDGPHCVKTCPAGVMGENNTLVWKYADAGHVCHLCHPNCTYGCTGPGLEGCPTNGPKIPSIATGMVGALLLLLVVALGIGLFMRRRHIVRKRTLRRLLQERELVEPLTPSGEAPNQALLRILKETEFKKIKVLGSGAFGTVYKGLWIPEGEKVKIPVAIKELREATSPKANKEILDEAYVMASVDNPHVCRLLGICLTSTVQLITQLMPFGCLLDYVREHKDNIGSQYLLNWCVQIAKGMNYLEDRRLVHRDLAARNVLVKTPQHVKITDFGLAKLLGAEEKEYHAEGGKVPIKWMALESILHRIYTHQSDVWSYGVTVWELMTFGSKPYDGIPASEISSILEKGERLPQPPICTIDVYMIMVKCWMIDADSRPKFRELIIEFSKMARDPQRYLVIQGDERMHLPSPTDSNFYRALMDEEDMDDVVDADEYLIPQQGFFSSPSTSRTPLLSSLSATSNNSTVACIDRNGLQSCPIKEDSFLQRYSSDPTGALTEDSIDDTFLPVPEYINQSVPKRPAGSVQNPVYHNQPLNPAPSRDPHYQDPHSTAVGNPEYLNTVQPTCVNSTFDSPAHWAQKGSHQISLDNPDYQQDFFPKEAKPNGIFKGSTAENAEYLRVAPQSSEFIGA
Sequence of EGFR (human) (P00533 whole entry, looked up): as above

`COc1cccc(-c2cn(-c3ccc(CCN(C)CCO)cc3)c3ncncc23)c1`: the IC50 against EGFR [1] was determined as 10 µM; against EGFR [2], 0.3 µM.

Turning to `O=C1Nc2ccccc2/C1=C/c1ccc(-n2cccc2)cc1`, in the test with EGFR (mouse), the half-maximal inhibitory concentration (IC50) came to 17 µM. On to `N#C/C(=C\c1ccc2c(c1)OCO2)c1ccccn1`, for which, on EGFR (human), the IC50 worked out at 1 µM. Compound `CC(C)=CCNc1ncnc2[nH]cnc12` returned an IC50 on CDK2 of 50 µM.
